# Reference: patent publication US20160194336A1, “P38 MAPK INHIBITORS FOR THE TREATMENT OF INFLAMMATORY DISEASES” (ALLINKY BIOPHARMA, priority 2012, published 2016)
# Legend:
# p38αR186A = target: T1, p38αR186A (Homo sapiens, UniProt Q16539, R186A); assay: site-mutated p38 phosphorylation cascade assay, R186A mutant; assay type: biochemical; conditions: compound 10 uM
# T1 construct: made in house; host or cells: E. coli XL10-Gold
# Protocol: (§1) After preincubation, MKK6 (ProQinase), ATF2 (ProQinase) and ATP were added to a final concentration of 10 nM, 5 μM and 10 μM respectively, then incubated 40 minutes at 30° C. and analyzed with ADP-Glo™.
# (§2) Replacement of specific residues arginine 186 and 189 of p38α (pGEX4T-1-p38α) for alanine was performed with the QuikChange Lightining Site-Directed Mutagenesis Kit (Agilent Technologies). The following oligonucleotides were used for the arginine 186 to alanine substitution: forward primer: 5′-SEQ ID NO 7-3′; reverse primer: 5′-SEQ ID NO 8-3′. Oligonucleotides used for the arginine 189 to alanine substitution were: forward primer: 5′-SEQ ID NO 9-3′; reverse primer: 5′-SEQ ID NO 10-3′. Mutations were validated by sequencing (Genomic Unit, Parque Cientifico de Madrid). E. coli XL10-Gold ultracompentent cells (Agilent Technologies) were transformed with the vector plasmids containing p38αWT and mutants. For the expression of recombinant p38α transformed cells were cultured overnight at 37° C. in 50 ml of fresh LB medium containing ampicillin (100 μg/ml). After that, culture was diluted in fresh LB to A595=0.4 and grown for approximately 1 h at 37° C. until exponential growth and then induced with Isopropyl-β-D-thiogalactopyranoside (IPTG) 1 mM for 5 h. The cells were collected by centrifugation and cell pellet were resuspended in 50 ml of cold lysis buffer: PBS pH 7.4, EDTA 10 mM, PMSF 1 mM, Benzamidine 0.2 mM, DTT 5 mM, Triton X-100 1% and Lysozyme 1 mg/ml. The soluble and insoluble fractions were separated by centrifugation (16,000 g for 20 min). The soluble fraction was incubated for 2 hours with 1 ml of pre-equilibrated Glutathione Sepharose 4B (GE Healthcare) and the resin was extensively washed in a column with 200 ml of binding buffer: PBS, PMSF 1 mM and benzamidine 0.2 mM. Proteins were eluted with 1 ml of Tris-HCl 50 mM pH 8.0 and reduced glutathione 20 mM. 20% glycerol was added to purified proteins and stored at −80° C. Protein concentration and purity was assessed by SDS-PAGE. Kinase activity was measured by ADP-glo kit using MKK6 as activator and ATF2 as substrate. Activity recorded for p38αR186A and p38αR189A were 15.5% and 4.8%, respectively (n=4) related to wild type protein.
# [1] = tested on: TNF-α secretion, THP-1 cells; assay: Inhibition of TNF-α secretion by LPS-stimulated THP-1; assay type: cell-based; conditions: Homo sapiens, THP-1, 3 h, monocytes with LPS, read-out: TNF abetment
# Protocol: Inhibition of TNF-α Secretion by a Human Monocytic Cell Line, THP-1.
# THP-1 cells, growing in log phase, were collected by centrifugation and resuspended in RPMI 1640 (Sigma Aldrich), to a final cell concentration of 2×10^6 cells/ml. Cells were plated into 24-well plates (BD Biosciences). Dilutions of compounds in dimethyl sulfoxide (DMSO) were added to the culture to a final concentration M. The final DMSO concentration was 0.5%. The cells […] suspensions were preincubated with compounds for 1 h at 37° C. in a 5% C02 humidified atmosphere before the addition of LPS (Sigma Aldrich, L2654) to a final concentration of 2 μg/ml. After that, cells were incubated for 3 h followed by centrifugation to pellet cells. Cell supernatants were stored at 4° C. until Human analysis for TNF-α content. TNF-α levels were determined by ELISA (TNF Biotrak, GE Healthcare) following the manufacturer's directions. The percentage inhibition was calculated for each compound concentration tested, and the IC50 was calculated for each compound.
# p38αR189A = target: T2, p38αR189A (Homo sapiens, UniProt Q16539, R189A); assay: site-mutated p38 phosphorylation cascade assay, R189A mutant; assay type: biochemical; conditions: compound 10 uM
# T2 construct: made in house; host or cells: E. coli XL10-Gold
# T2 sequence (Q16539 whole entry R189A): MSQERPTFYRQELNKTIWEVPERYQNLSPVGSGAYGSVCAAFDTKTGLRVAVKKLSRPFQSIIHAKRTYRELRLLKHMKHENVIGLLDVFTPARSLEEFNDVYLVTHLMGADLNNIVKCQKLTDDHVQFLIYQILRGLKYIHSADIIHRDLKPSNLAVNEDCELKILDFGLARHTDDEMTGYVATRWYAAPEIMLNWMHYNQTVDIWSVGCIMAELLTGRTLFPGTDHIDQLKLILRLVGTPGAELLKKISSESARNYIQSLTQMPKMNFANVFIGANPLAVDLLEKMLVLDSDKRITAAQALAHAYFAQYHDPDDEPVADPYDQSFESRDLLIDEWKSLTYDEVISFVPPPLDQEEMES
# Protocol: as §1, §2
# THP-1 cells = assay: survival of monocytes with LPS; assay type: cell-based, human
# p38alpha wt = target: T3, p38alpha wt (Homo sapiens, UniProt Q16539); assay: site-mutated p38 phosphorylation cascade assay, wild type; assay type: biochemical; conditions: compound 10 uM
# T3 construct: made in house; host or cells: E. coli XL10-Gold
# T3 sequence (Q16539 whole entry): as the sequence (Q16539 whole entry R189A) above, with A189R counted along it
# Protocol: as §1, §2
# T1 sequence (Q16539 whole entry R186A): as the sequence (Q16539 whole entry R189A) above, with R186A, A189R counted along it
inhibition at 10 µM (p38αR186A) [%],inhibition at 10 µM (p38αR189A) [%],inhibition at 10 µM (p38alpha wt) [%],Compound,inhibition at 1 µM [1] [%],inhibition at 10 µM [1] [%],Cell survival (THP-1 cells; 1 uM) [%],Cell survival (THP-1 cells; 10 uM) [%],inhibition at 0.1 µM [1] [%],Cell survival (THP-1 cells; 0.1 uM) [%]
22,14,34,CCOC(=O)c1ccc(Nc2nc3nonc3nc2N2CCN(Cc3cccc(Cl)c3)CC2)cc1 [Compound 13],13,32,93,86,–,–
28,20,61,CCOC(=O)c1ccc(Nc2nc3nonc3nc2N2CCC(Sc3ccc(C)cc3)CC2)cc1 [Compound 15],17,32,92,97,–,–
15,17,32,CCOC(=O)c1ccc(Nc2nc3nonc3nc2N2CCC(Oc3ccccc3OC)CC2)cc1 [Compound 16],26,35,95,93,16,88
19,13,56,CCOC(=O)c1ccc(Nc2nc3nonc3nc2N2CCC(C(=O)c3ccccc3)CC2)cc1 [Compound 17],34,69,98,97,21,99
37,33,62,CC(C)NC(=O)c1ccc(Nc2nc3nonc3nc2N2CCC(Cc3ccccc3)CC2)cc1 [Compound 18],34,56,83,79,1,90
43,39,66,CCOC(=O)c1ccc(NNc2nc3nonc3nc2N2CCC(Cc3ccccc3)CC2)cc1 [Compound 24],12,67,98,105,-23,104
14,30,59,CCOC(=O)c1ccc(Nc2nc3nonc3nc2N2CCC(Oc3ccc(Cl)cc3)CC2)cc1 [Compound 25],61,102,61,42,12,88
72,47,88,CCOC(=O)c1ccc(Nc2nc3nonc3nc2Nc2ccc(Oc3ccncc3)cc2)cc1 [Compound 27],58,76,99,72,28,103
41,27,86,CCOC(=O)c1ccc(Nc2nc3nonc3nc2N2CCC(Sc3ccc(Cl)cc3)CC2)cc1 [Compound 28],24,36,87,88,17,88
21,6,23,O=C(O)c1ccc(Nc2nc3nonc3nc2N2CCC(Cc3ccccc3)CC2)cc1 [Compound 29],11,44,103,92,7,103
35,27,84,COC(=O)c1ccc(Nc2nc3nonc3nc2N2CCC(Oc3ccc(Cl)cc3)CC2)cc1 [Compound 31],43,60,100,92,20,101

# Second part, the molecule before the results:
Compound,inhibition at 10 µM (p38αR186A) [%],inhibition at 10 µM (p38αR189A) [%],inhibition at 10 µM (p38alpha wt) [%],inhibition at 1 µM [1] [%],inhibition at 10 µM [1] [%],Cell survival (THP-1 cells; 1 uM) [%],Cell survival (THP-1 cells; 10 uM) [%],inhibition at 0.1 µM [1] [%],Cell survival (THP-1 cells; 0.1 uM) [%]
CCOC(=O)c1ccc(Nc2nc3nonc3nc2NN=Cc2cccc3ccccc23)cc1 [Compound 12],39,14,81,-6,-16,97,99,–,–
CCOC(=O)c1ccc(Nc2nc3nonc3nc2N2CCN(Cc3ccccc3C)CC2)cc1 [Compound 14],18,17,31,–,17,–,81,–,–
CCCNC(=O)c1ccc(Nc2nc3nonc3nc2N2CCC(Cc3ccccc3)CC2)cc1 [Compound 19],35,32,71,-21,-10,97,93,-47,103
CC(C)NC(=O)c1cccc(Nc2nc3nonc3nc2N2CCC(Cc3ccccc3)CC2)c1 [Compound 20],38,22,71,55,36,96,81,-9,101
Cc1cc(C(=O)NCC(C)C)ccc1Nc1nc2nonc2nc1N1CCC(Cc2ccccc2)CC1 [Compound 21],48,38,83,18,20,95,94,-15,98
Cc1ccc(SC2CCN(c3nc4nonc4nc3-c3cccc(C(=O)OC(C)C)c3)CC2)cc1 [Compound 22],16,6,31,17,10,94,99,-2,97
CCCNC(=O)c1ccc(Nc2nc3nonc3nc2N2CCC(Sc3ccc(C)cc3)CC2)cc1 [Compound 23],48,26,90,41,60,95,88,26,96
CCOC(=O)c1ccc(Nc2nc3nonc3nc2Nc2ccc(C(=O)c3ccccc3)cc2)cc1 [Compound 26],40,28,73,30,8,87,83,27,86
O=C([O][Na+])c1ccc(Nc2nc3nonc3nc2N2CCC(Cc3ccccc3)CC2)cc1 [Compound 30],19,9,25,16,41,97,93,12,99
